A short description of assay [1]: Selectivity interaction (Ambit KINOMEscan and KiNATiv profiling in Jurkat cells) EUB0000090b PKNB. The conditions noted are these: Selectivity number of off-targets 9; Selectivity number of targets 456; Source Knowledge https://www.nature.com/articles/nchembio.2166; at 1 µM.
Assay [2] has as its target T1, Serine/threonine-protein kinase ICK (Homo sapiens) (UniProt Q9UPZ9).
T1 sequence (whole entry): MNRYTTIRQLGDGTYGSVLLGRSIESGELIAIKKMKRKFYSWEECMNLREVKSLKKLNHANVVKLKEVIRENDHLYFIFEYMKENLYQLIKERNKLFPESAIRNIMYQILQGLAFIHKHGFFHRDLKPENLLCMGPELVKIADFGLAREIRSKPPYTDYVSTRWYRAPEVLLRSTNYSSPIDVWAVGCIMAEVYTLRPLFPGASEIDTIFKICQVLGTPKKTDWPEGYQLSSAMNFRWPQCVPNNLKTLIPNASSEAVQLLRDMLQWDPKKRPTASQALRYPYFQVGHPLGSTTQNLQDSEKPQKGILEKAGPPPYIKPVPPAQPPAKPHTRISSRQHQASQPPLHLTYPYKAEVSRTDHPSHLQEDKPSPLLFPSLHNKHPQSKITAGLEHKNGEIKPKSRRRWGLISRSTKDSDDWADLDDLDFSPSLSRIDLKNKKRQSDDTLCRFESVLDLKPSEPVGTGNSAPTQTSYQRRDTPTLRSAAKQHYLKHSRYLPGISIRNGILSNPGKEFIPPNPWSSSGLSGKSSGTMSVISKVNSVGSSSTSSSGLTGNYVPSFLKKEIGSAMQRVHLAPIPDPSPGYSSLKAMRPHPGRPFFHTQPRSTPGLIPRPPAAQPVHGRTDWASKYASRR
Kind of assay: Selectivity interaction (LanthaScreen Eu Kinase Binding Assay) EUB0001632a ICK. The conditions noted are these: at 10 µM.

Assay [3] deals with Hepatocyte growth factor receptor (Homo sapiens), P08581 [M1250T]. The assay can be described thus: (§1) Selectivity interaction (SelectScreen profiling (Invitrogen)) EUB0000607a MET. The conditions noted are these: at 2 µM.
Assay [4] concerns the target Hepatocyte growth factor receptor (Homo sapiens, UniProt P08581). Described as §1. The conditions noted are these: at 2 µM.
Assay [5] concerns the target T2, Interleukin-1 receptor-associated kinase 3 (Homo sapiens) (UniProt Q9Y616).
T2 sequence (whole entry): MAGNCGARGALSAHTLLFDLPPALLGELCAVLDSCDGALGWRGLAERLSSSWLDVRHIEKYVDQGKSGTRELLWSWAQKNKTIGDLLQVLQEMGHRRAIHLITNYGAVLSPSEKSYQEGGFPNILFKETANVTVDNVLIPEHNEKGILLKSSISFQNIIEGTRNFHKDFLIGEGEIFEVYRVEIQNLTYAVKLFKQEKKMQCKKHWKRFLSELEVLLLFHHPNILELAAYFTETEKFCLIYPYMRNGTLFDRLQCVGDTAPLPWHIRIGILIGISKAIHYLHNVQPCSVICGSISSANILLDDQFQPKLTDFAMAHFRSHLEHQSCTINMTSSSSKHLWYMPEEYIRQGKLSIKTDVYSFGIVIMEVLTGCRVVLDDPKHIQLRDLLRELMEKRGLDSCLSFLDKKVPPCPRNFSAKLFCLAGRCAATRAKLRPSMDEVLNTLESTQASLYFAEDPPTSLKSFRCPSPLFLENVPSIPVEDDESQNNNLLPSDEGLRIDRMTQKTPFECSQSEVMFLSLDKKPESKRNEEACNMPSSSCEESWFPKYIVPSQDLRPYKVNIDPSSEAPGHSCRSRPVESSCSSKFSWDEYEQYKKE
Kind of assay: Selectivity interaction (ActivX KiNativ screen (kinase selectivity in THP-1 cell lysates)) EUB0000639a IRAK3. The conditions noted are these: lysate, at 0.2 µM. In kind it is subcellular.

Assay [6] addresses T3, Protein kinase C zeta type (Homo sapiens) (UniProt Q05513).
T3 sequence (whole entry): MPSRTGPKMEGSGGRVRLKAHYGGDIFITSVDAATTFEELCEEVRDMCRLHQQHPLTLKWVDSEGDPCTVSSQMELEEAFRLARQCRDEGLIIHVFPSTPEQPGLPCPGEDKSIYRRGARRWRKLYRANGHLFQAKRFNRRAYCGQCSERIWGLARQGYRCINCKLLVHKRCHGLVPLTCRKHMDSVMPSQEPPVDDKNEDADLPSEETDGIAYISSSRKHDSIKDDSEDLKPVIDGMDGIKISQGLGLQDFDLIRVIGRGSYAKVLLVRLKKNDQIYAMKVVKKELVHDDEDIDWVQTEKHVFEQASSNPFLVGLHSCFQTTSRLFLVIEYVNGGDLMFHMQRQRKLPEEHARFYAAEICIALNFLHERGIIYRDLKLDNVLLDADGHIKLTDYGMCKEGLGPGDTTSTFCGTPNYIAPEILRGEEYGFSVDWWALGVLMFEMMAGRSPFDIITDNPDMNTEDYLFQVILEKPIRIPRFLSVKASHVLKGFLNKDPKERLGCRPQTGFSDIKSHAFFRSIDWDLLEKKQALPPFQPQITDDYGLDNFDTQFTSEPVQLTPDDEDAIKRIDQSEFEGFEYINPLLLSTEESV
Kind of assay: Selectivity interaction (ActivX KiNativ screen (kinase selectivity in THP-1 cell lysates)) EUB0000639a PRKCZ. In kind it is subcellular. To be noted: lysate.

Data on four compounds can be found in ChEMBL document CHEMBL5465560, “Selectivity Literature for EUbOPEN Chemogenomic Library” (2024).

Molecules are shown by their SMILES.

Hepatocyte growth factor receptor (Homo sapiens), P08581 [M1250T], sequence (P08581 whole entry M1250T): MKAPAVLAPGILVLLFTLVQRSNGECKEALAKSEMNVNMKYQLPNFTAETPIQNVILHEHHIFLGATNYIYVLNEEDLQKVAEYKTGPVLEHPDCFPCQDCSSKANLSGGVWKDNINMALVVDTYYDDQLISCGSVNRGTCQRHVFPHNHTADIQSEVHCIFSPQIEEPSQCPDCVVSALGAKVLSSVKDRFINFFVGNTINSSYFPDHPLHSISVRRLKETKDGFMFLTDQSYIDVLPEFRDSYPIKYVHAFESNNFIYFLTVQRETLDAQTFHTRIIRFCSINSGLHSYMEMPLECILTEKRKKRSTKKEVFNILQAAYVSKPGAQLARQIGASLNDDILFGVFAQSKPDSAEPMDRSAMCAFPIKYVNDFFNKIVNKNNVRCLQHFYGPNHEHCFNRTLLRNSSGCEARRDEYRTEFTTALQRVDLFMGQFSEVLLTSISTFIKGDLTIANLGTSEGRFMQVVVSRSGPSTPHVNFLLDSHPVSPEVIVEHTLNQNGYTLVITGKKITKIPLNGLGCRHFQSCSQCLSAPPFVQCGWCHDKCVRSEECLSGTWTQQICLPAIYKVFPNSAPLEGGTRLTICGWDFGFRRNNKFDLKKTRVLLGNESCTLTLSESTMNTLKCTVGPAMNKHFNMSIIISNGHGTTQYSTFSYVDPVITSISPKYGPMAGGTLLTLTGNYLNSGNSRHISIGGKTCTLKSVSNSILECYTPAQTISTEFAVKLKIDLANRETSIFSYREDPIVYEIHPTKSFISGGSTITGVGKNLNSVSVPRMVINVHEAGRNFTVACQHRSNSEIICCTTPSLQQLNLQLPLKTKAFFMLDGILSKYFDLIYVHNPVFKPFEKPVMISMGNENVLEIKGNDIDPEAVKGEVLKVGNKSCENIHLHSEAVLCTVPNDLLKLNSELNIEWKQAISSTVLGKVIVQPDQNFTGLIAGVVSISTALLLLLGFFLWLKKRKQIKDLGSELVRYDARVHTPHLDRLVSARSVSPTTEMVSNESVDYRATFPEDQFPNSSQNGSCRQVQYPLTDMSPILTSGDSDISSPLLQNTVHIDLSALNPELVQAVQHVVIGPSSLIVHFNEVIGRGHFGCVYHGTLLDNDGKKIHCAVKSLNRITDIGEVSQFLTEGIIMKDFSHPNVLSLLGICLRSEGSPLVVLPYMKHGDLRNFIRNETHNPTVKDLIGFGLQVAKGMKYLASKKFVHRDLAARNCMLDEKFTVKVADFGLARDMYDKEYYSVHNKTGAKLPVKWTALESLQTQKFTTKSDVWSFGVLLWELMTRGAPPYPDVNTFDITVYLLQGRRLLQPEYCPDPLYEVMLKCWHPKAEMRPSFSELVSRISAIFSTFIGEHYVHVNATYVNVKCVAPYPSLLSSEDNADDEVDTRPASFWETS
Hepatocyte growth factor receptor, sequence (P08581 whole entry): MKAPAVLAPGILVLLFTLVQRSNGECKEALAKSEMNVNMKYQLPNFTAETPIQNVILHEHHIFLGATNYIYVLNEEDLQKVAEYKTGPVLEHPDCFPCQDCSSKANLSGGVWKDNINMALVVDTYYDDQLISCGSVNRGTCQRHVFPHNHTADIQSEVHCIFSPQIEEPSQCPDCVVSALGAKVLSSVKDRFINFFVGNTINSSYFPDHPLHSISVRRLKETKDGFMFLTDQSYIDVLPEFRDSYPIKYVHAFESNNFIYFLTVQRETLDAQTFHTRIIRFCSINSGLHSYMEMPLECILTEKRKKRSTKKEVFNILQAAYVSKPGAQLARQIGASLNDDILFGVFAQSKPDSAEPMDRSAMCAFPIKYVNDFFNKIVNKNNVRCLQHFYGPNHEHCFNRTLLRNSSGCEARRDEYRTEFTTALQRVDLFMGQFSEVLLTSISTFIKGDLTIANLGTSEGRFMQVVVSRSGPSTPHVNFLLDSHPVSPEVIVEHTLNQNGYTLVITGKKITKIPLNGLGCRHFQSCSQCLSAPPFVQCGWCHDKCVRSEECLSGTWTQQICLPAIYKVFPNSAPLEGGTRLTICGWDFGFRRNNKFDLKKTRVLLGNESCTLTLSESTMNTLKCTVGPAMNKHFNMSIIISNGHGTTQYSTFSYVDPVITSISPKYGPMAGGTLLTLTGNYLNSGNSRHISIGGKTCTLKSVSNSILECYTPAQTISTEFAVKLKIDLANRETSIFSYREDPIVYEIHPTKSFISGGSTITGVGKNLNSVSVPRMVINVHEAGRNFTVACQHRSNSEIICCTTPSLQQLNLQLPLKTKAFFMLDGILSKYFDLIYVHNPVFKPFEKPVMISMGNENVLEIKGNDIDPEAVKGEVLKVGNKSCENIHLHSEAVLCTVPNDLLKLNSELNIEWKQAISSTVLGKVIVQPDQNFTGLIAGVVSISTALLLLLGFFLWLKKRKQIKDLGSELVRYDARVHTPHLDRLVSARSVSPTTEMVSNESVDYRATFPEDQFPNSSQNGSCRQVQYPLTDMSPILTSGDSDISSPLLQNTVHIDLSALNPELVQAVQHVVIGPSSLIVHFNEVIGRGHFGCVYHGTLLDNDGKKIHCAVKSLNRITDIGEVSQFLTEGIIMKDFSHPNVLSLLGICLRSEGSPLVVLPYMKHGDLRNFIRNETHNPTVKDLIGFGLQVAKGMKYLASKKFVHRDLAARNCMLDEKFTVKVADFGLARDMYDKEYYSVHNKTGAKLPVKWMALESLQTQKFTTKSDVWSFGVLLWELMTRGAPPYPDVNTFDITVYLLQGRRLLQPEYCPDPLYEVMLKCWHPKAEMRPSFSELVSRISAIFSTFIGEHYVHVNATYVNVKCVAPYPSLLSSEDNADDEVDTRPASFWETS

Turning to `CN(C)C/C=C/C(=O)Nc1ccc(C(=O)N2CCCC(Nc3ncc(Cl)c(-c4c[nH]c5ccccc45)n3)C2)cc1` (stereo not given), the “% of control” value in assay [1] was found to be 38%.
As for `Cn1cc(-n2cnc3c(NCc4nc5cc(Cl)c(Cl)cc5[nH]4)nc(N4CCOCC4)nc32)cn1`, in assay [2], the % of inhibition is -3.44%.
Regarding `CNC(=O)Nc1ccc(-c2nc(N3CC4CCC(C3)O4)c3cnn(C4CCC5(CC4)OCCO5)c3n2)cc1`, the % of inhibition was 1% in assay [3] and 2% in assay [4].
Consider `CC[C@@H]1[C@H](F)C(=O)N[C@@H]1COc1nccc2cc(C(N)=O)c(OC)cc12` [ZIMLOVISERTIB], for which the % of inhibition in assay [5] was 34%; in assay [6] (at 0.01 µM), 8.5%; in assay [6] (at 0.04 µM), -2.3%; in assay [6] (at 0.2 µM), -7.6%; in assay [6] (at 1 µM), 6.9%; in assay [6] (at 5 µM), -26.2%.
